# In patent publication US8252723B2, “Substituted 1-(3-pyridinyl)pyrazol-4-ylacetic acids, processes for their preparation and their use as herbicides and plant growth regulators” (Bayer CropScience AG, priority 2006, dated 2012):
# Tested on: summer wheat of the cultivar 'Triso'
# Assay: Plant growth regulation test: culm stabilization of crop plants
# Assay type: in vivo
# Conditions: application rate of 30 to 300 g of active substance per hectare, treated at stage BBCH 31, culm length measured after ears had formed
# Summary of the method: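 Wettable-powder formulation with adjuvant (1 l/ha) sprayed at 300 l water/ha onto pot-grown plants at BBCH 31, then kept outdoors. After ear formation culm length was measured; culm stabilization is expressed as percent of untreated control.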
row,SMILES,longitudinal growth (culm length) of summer wheat
1,Cc1nn(-c2cccnc2)c(-c2ccc(Cl)cn2)c1CC(=O)O [Example 1-110],effectively shortened
2,Cc1nn(-c2cnccc2[S+](C)[O-])c(-c2ccc(Cl)cc2)c1CC(=O)O (stereo not shown) [Example 1-64],effectively shortened
3,C=CCCOC(=O)Cc1c(C)nn(-c2cccnc2)c1-c1ccccc1 [Example 3-180],effectively shortened
4,COC(=O)Cc1c(C)nn(-c2cnccc2C)c1-c1cccc(Br)c1 [Example 2-40],effectively shortened
5,COC(=O)Cc1c(C)nn(-c2cnccc2C)c1-c1ccc(C)c(Cl)c1 [Example 2-49],effectively shortened
6,Cc1ccc(-c2c(CC(=O)O)c(C)nn2-c2cnccc2C)cc1 [Example 1-36],effectively shortened
7,CC#CCOC(=O)Cc1c(C)nn(-c2cccnc2)c1-c1ccccn1 [Example 3-136],effectively shortened
8,CCCOC(=O)Cc1c(C)nn(-c2cccnc2)c1-c1ccccn1 [Example 3-34],effectively shortened
9,COC(=O)Cc1c(C)nn(-c2cnccc2SC)c1-c1ccccc1 [Example 2-44],effectively shortened
10,CCCc1nn(-c2cccnc2)c(-c2ccc(Cl)cc2)c1CC(=O)OC [Example 2-89],effectively shortened
11,Cc1nn(-c2cccnc2)c(-c2ccc(C(F)(F)F)cc2)c1CC(=O)O [Example 1-28],effectively shortened
12,C=CCOC(=O)Cc1c(C)nn(-c2cccnc2)c1-c1ccccc1 [Example 3-148],effectively shortened
13,COC(=O)Cc1c(C)nn(-c2cccnc2)c1-c1ccc(C)s1 [Example 2-61],effectively shortened
14,Cc1ccc(-c2c(CC(=O)O)c(C)nn2-c2cccnc2)nc1 [Example 1-113],effectively shortened
15,Cc1ccc(-c2c(CC(=O)O)c(C)nn2-c2cccnc2)cc1Cl [Example 1-46],effectively shortened
16,C#CCOC(=O)Cc1c(C)nn(-c2cnccc2C)c1-c1ccc(Cl)cc1 [Example 3-75],effectively shortened
17,COC(=O)Cc1c(C)nn(-c2cccnc2)c1-c1ccc(Cl)cc1 [Example 2-26],effectively shortened
18,COC(=O)Cc1c(C)nn(-c2cccnc2)c1-c1ccccn1 [Example 2-109],effectively shortened
19,CCOC(=O)Cc1c(C)nn(-c2cccnc2)c1-c1ccccn1 [Example 3-227],effectively shortened
20,COC(=O)Cc1c(C)nn(-c2cnccc2C)c1-c1cc(Cl)cc(Cl)c1 [Example 2-68],effectively shortened
21,Cc1ccncc1-n1nc(C)c(CC(=O)O)c1-c1cccc(Br)c1 [Example 1-40],effectively shortened
22,C=C(Cl)COC(=O)Cc1c(C)nn(-c2cccnc2)c1-c1ccc(C)nc1 [Example 3-195],effectively shortened
23,Cc1nn(-c2cccnc2)c(-c2ccc(Cl)cc2)c1CC(=O)OCC1(C)COC1 [Example 3-233],effectively shortened
24,Cc1ccncc1-n1nc(C)c(CC(=O)O)c1-c1ccc(-c2ccccc2)cc1 [Example 1-41],effectively shortened
25,CSc1ccncc1-n1nc(C)c(CC(=O)O)c1-c1ccc(Cl)cc1 [Example 1-45],effectively shortened
